# Assay results: ChEMBL document CHEMBL1201862, “PubChem BioAssay data set” (2004)
# Calls of active or inactive are those of the source.
# Legend:
# [1] = test system: HEK293; assay: inhibitors of LMP1-driven NF-kB reporter, dose response, cell-based, HEK293, luciferase, cherry-pick (AID 588343); type: functional; conditions: Homo sapiens
# [2] = growth suppression of PTEN-null colon cells, dose response, cell-based, HCT116 PTEN knockout (AID 1047); type: functional;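 note: HCT116 colon tumor cells with PTEN knocked out; cells exposed to compound for 60 hours before readout; potency for loss of cell viability measured by luminescence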
# [3] = growth suppression of beta-catenin-knockout colon cells, dose response, cell-based, HCT116, human colon tumor (AID 1045); type: functional;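 note: HCT116 colon tumor cells with beta catenin knocked out; cells exposed to compound for 60 hours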
# [4] = Luminescence Cell-Based Dose Retest to Confirm Inhibitors of Cancer Stem Cells. [Related pubchem assays (depositor defined):AID2717, AID2721]; type: functional; conditions: Homo sapiens
# [5] = test system: INS1; assay: beta cell apoptosis inhibitors, cytokine rescue, dose response, luminescence, retest (AID 449756); type: functional, cell-based; conditions: Rattus norvegicus;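 note: cell death triggered by IL-1 beta plus TNF-alpha plus IFN-gamma mixture; protective hits raise ATP signal compared with cytokine alone wells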
# [6] = Shn3 3'UTR reporter inhibitors, dose response, cell-based, Clone20 osteoblasts, firefly luciferase, cherry-picked (AID 624132); type: functional;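 note: firefly luciferase luminescence from reporter carrying the Shn3 3'UTR in osteoblasts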
# [7] = HepG2 cell cytotoxicity, dose response, cytotoxicity control for Shn3 inhibitor project, CellTiter-Glo, cherry-picked (AID 624134); type: functional, cell-based
# [8] = control 3'UTR Renilla luciferase suppression, dose response, counter-screen for Shn3 inhibitor project, cell-based, Clone20-Shn3RL, cherry-picked (AID 624133); type: functional
# [9] = target: Paired box protein Pax-8 (Homo sapiens, UniProt Q06710); assay: inhibitors of PAX8-driven TPO luciferase reporter, dose response, RMG-I cells, cherry-pick (AID 687027); type: functional, cell-based;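 note: luciferase reporter driven by Pax8 target thyroperoxidase promoter measured by SteadyGlo luminescence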
# [10] = target: Luciferin 4-monooxygenase (Photinus pyralis, UniProt P08659); assay: firefly luciferase enzyme inhibitors, dose response, biochemical, luminescence (AID 1891)
# [11] = Luminescence Cell-Based Dose Confirmation HTS to Identify Inhibitors of Platelet Dense Granule Release. [Related pubchem assays: 1663 (Primary HTS), 1678 (Summary of Project)]; type: functional
# [12] = target: Large T antigen (Simian virus 40, UniProt P03070); type: functional, Betapolyomavirus macacae;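 note: Confirmatory-stage PubChem screen for compounds that inhibit SV40 T antigen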
# [13] = target: T1, RNA-binding protein pos-1 (Caenorhabditis elegans, UniProt G5EF15); assay: inhibitors of POS-1/mex-3 RNA binding, dose response, biochemical, fluorescence polarization (AID 1964);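 note: purified POS-1 fused to maltose binding protein made in E. coli; potency of compounds blocking POS-1 binding to fluorescent RNA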
# T1 sequence (G5EF15 whole entry): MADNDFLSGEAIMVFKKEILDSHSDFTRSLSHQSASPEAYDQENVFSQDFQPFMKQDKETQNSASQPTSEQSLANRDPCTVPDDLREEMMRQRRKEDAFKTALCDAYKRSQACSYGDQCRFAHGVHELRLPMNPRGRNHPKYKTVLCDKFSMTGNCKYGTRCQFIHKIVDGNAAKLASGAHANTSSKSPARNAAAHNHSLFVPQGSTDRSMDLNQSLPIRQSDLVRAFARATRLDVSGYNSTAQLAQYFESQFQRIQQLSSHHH
# [14] = target: T2, Zinc finger protein mex-5 (Caenorhabditis elegans, UniProt Q9XUB2); assay: MEX-5/TCR-2 RNA interaction inhibitors, dose response, biochemical, C. elegans, fluorescence polarization (AID 1960)
# T2 sequence (Q9XUB2 whole entry): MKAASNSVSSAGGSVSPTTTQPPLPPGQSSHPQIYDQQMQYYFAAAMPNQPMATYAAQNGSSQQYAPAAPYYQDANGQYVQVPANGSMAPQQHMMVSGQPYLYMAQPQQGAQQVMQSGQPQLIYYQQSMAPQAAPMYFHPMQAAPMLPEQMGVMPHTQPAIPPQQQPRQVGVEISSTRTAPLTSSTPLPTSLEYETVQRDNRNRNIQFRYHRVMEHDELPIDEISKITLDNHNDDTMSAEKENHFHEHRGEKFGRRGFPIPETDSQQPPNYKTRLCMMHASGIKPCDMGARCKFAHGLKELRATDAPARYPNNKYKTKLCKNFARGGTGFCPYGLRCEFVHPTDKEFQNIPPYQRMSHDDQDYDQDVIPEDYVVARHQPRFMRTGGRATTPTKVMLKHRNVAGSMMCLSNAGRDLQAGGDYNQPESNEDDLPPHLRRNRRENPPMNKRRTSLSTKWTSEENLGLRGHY
# [15] = target: T3, Cytochrome P450 3A4 (Homo sapiens, UniProt P08684); conditions: Potency
# [16] = HEp-2 cell cytotoxicity, dose response, cytotoxicity control for RSV inhibitor project, HTS (AID 2410); type: functional; conditions: human respiratory syncytial virus
# [17] = target: T4, Fatty acid synthase (Homo sapiens, UniProt P49327); assay: FAS thioesterase domain inhibitors, dose response, biochemical, endpoint fluorescence intensity, uHTS hits (AID 624327); type: functional;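 note: fluorescence from hydrolysis of an O-methyl fluorescein acyl ester substrate by the enzyme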
# [18] = target: T4, Fatty acid synthase; assay: FAS thioesterase domain inhibitors, dose response, biochemical, kinetic fluorescence intensity (AID 624326); type: functional;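 note: rate of fluorescence rise from hydrolysis of a fluorogenic O-methyl fluorescein ester substrate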
# [19] = target: Nonstructural protein 1 (Influenza A virus, UniProt Q194T2); type: functional, Influenza A virus (A/California/07/2009(H1N1))
# [20] = target: Cytochrome P450 2C19 (Homo sapiens, UniProt P33261); assay: Cytochrome panel assay with activity outcomes. Panel member name: p450-cyp2c19 Compounds with AC50 equal or less than 10 uM are considered active; type: functional; conditions: read-out: AC50
# [21] = target: T5, Cytochrome P450 1A2 (Homo sapiens, UniProt P05177);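 note: PubChem cytochrome P450 panel assay, CYP1A2 panel member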
# T5 sequence (P05177 whole entry): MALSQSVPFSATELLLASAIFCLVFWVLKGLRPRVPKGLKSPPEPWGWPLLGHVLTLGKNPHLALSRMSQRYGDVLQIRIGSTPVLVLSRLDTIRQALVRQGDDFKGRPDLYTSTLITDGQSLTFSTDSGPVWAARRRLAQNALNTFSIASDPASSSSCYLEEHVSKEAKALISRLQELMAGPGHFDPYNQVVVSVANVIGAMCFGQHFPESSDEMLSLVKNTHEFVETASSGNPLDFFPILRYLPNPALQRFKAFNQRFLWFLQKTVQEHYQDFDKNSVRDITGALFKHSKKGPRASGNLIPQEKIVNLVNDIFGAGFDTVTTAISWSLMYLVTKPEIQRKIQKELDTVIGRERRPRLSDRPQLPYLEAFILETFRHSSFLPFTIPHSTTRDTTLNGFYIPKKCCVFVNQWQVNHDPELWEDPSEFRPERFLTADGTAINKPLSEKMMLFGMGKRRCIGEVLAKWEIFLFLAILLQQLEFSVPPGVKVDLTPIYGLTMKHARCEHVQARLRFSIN
# [22] = target: T3, Cytochrome P450 3A4
# [23] = target: T6, Heat shock factor protein 1 (Mus musculus, UniProt P38532); assay: inhibition of MG132-induced HSE-luciferase signal, confirmation, cell-based, NIH3T3, luminescence, dose retest (AID 2382); type: functional;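 note: NIH3T3 fibroblasts with HSF1-driven luciferase reporter stressed by proteasome inhibitor MG132; luminescence from HSF1-driven luciferase expression after 8 hours of MG132 stress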
# T6 sequence (P38532 whole entry): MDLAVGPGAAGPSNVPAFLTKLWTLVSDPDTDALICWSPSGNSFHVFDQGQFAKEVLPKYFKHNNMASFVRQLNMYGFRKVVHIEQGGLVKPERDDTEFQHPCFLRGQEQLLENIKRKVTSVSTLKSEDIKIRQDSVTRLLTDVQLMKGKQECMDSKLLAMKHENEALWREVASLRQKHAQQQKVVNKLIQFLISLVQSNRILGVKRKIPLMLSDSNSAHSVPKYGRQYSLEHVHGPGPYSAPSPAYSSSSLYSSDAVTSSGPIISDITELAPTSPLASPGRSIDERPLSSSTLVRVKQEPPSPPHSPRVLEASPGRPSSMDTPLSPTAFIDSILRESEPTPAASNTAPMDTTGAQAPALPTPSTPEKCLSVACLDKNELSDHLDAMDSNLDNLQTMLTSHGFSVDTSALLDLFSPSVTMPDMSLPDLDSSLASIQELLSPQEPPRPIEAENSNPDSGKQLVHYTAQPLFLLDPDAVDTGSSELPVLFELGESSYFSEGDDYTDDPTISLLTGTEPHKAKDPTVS
# [24] = cells; type: functional, cell-based
# [25] = cells; type: functional, cell-based; remark: listed apart in the source
# T3 sequence (P08684 whole entry): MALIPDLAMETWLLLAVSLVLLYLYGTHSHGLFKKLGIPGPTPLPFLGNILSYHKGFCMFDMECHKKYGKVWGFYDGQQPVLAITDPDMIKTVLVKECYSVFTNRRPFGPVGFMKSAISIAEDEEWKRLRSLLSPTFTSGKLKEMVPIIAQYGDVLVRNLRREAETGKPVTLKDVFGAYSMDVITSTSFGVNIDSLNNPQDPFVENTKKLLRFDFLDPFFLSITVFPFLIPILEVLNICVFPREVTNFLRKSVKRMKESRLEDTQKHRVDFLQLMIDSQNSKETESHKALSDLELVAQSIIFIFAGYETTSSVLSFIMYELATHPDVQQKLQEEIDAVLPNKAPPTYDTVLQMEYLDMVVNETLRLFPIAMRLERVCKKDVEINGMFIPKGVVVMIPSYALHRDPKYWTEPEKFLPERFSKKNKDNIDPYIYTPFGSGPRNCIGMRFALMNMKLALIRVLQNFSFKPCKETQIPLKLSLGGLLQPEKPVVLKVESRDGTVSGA
# Chain of Nonstructural protein 1 (Q194T2 whole entry): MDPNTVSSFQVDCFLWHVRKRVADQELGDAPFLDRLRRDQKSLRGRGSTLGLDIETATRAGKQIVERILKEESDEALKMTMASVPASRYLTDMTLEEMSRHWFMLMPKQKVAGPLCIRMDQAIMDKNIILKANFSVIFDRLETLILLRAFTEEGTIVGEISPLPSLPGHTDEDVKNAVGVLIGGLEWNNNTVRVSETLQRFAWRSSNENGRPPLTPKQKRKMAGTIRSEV
# Chain of Large T antigen (P03070 whole entry, the tested form may be a part): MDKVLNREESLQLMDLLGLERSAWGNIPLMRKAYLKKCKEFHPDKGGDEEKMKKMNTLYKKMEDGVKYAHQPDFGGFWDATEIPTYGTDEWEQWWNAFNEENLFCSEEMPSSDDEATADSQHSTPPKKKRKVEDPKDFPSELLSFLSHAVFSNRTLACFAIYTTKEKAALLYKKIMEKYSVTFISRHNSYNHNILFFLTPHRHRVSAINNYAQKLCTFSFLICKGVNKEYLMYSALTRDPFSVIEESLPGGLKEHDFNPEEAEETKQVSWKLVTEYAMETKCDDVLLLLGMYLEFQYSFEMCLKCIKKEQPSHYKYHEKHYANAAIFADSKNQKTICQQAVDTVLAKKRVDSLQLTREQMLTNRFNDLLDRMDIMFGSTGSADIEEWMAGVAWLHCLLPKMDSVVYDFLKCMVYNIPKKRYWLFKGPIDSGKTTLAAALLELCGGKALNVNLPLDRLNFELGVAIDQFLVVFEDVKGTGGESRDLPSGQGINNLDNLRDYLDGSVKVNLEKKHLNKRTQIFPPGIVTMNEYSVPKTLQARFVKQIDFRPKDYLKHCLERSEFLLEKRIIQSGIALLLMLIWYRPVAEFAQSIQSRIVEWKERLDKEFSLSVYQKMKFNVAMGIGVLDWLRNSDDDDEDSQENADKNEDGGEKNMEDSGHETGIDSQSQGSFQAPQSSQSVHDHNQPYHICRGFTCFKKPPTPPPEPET
# T4 sequence (P49327 whole entry, the tested form may be a part): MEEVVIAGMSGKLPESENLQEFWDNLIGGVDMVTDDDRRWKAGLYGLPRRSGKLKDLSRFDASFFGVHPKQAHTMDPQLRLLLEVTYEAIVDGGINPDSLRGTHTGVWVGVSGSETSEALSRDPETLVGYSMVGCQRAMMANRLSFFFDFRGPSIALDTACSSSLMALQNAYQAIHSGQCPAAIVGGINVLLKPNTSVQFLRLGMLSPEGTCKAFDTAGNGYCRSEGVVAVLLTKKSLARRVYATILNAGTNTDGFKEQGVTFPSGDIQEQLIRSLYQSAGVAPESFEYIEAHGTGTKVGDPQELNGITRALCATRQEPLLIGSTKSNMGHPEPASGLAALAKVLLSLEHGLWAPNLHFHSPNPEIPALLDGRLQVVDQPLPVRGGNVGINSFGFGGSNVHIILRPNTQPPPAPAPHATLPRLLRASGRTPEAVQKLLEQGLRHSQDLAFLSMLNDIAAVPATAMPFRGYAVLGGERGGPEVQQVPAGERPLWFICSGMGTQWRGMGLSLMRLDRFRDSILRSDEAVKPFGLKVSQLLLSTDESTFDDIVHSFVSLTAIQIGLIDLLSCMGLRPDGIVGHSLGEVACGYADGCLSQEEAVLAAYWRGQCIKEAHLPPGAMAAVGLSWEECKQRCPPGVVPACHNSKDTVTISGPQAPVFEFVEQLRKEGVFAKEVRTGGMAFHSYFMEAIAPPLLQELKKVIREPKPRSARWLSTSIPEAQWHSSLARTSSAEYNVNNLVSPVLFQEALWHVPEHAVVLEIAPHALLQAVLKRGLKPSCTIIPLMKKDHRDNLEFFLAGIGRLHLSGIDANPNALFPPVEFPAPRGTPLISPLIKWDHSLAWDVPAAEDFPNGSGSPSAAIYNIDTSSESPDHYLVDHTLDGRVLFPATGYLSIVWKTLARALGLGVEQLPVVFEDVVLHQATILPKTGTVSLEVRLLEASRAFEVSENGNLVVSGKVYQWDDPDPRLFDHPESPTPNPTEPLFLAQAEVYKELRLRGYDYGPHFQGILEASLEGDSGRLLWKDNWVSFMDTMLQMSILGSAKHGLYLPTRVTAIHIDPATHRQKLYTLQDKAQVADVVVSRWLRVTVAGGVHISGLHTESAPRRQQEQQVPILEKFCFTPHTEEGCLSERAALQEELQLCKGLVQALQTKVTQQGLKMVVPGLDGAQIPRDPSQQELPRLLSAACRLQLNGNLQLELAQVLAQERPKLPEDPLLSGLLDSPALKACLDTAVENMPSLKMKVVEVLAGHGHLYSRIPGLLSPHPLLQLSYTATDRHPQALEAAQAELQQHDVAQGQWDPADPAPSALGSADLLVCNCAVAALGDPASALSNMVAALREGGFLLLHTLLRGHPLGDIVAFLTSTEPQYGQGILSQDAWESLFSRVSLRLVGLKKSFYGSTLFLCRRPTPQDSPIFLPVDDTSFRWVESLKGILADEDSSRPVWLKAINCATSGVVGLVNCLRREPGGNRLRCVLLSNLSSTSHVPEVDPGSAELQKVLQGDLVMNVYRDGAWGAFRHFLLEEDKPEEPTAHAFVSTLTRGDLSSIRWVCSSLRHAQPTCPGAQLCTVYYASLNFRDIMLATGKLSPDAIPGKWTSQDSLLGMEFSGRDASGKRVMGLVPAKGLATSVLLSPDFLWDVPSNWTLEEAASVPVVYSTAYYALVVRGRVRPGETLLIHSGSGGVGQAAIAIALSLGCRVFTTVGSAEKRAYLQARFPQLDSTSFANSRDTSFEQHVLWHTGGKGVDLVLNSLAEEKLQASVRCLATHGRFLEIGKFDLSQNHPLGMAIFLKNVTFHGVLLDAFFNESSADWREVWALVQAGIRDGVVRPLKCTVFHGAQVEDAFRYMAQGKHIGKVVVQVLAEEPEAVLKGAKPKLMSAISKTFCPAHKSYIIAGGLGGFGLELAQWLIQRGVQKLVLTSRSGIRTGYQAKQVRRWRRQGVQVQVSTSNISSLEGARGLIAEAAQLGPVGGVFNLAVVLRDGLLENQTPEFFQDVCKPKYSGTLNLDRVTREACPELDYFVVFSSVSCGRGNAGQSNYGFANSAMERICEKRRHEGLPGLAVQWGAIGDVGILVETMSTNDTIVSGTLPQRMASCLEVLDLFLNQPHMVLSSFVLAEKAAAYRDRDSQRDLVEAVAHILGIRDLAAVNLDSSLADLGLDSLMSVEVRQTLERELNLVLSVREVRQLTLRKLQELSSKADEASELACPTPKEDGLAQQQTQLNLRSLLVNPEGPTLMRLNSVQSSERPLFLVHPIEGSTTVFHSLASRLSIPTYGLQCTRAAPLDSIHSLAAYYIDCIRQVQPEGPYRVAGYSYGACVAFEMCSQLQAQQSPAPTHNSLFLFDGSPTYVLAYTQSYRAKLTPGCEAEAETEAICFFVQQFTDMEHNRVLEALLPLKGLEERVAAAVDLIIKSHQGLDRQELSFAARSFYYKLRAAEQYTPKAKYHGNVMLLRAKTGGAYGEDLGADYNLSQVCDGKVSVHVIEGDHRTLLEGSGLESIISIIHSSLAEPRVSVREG
# Chain of Cytochrome P450 2C19 (P33261 whole entry): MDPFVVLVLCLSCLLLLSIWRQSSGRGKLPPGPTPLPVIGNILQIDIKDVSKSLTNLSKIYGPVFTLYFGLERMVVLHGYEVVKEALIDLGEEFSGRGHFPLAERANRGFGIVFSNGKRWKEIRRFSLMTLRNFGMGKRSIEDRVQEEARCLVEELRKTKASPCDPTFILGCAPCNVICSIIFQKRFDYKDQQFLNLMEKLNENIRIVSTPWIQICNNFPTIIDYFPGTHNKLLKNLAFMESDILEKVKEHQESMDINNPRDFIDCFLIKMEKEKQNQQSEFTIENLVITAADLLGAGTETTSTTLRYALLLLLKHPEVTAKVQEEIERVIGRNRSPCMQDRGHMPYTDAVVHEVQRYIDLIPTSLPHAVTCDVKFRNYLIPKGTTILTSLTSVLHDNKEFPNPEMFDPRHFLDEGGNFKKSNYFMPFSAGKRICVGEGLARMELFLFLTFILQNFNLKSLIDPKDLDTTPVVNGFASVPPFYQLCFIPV
# Chain of Luciferin 4-monooxygenase (P08659 whole entry): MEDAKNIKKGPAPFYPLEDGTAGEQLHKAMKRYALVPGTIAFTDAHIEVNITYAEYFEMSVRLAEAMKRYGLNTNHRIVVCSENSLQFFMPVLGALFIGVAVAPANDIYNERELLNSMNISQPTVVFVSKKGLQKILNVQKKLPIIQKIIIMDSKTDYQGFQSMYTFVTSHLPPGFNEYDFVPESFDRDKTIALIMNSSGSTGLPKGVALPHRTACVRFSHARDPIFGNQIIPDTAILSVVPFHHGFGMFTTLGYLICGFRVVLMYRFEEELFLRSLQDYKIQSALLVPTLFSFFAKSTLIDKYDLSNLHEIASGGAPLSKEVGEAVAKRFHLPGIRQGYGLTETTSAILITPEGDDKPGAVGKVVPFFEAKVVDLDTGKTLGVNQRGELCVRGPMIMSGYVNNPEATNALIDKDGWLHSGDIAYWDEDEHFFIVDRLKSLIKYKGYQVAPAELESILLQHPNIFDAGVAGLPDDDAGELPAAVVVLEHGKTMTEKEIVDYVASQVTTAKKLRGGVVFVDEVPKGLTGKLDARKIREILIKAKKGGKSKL
smiles,measurement,setting,value
O=C(CSc1nc2ccccc2c(=O)n1CCCN1CCOCC1)Nc1ccc(Br)cc1,AC50,[1],> 350 µM (inactive)
O=C(NCCc1ccccc1)c1ccccc1Cl,AC50,[1],3.98 µM (active)
O=C(Nc1cccc(C(F)(F)F)c1)Nc1ccc(N2CCCC2)c(S(=O)(=O)Nc2ccccc2Cl)c1,EC50,[2],3.89 µM (active)
same,EC50,[3],4.39 µM (active)
same,AC50,[4],0.848 µM (active)
same,AC50,[5],3.57 µM (active)
same,AC50,[6],4.42 µM (active)
same,AC50,[7],5.53 µM (active)
same,AC50,[8],5.49 µM (active)
same,AC50,[9],6.41 µM (active)
O=c1oc2ccccc2c(O)c1/C=N/c1ccccn1,EC50,[10],> 112 µM (not active)
same,EC50,[11],> 112 µM (not active)
same,AC50,[1],162 µM (active)
Cc1nnc(O)nc1Nc1ccc(O)cc1,IC50,[12],4.52 µM (active)
CC1(OC(=O)CCc2ccccc2)C(=O)C=C2C=C(c3ccsc3)OC=C2C1=O (stereo not given),EC50,[13],49.7 µM (active)
same,EC50,[14],28.2 µM (active)
COc1ccc(C2C(C#N)=C(/N=C/N3CCN(C)CC3)OC3=C2C(=O)CC(C)(C)C3)cc1OC (stereo not given),EC50,[13],> 300 µM (not active)
same,EC50,[14],> 300 µM (not active)
COC(=O)[C@]1(C)CC[C@@]2(C)CC[C@@]3(C)C4=CCc5c(cc(O)c(O)c5C)[C@]4(C)CC[C@@]3(C)C2C1 (stereo not given in full),AC50,[15],39.8 µM (inconclusive)
COc1ccc(/C=N/NC(=O)CCc2nnc(O)nc2O)cc1O,IC50,[12],28.9 µM (active)
Cc1c([N+](=O)[O-])cc(S(=O)(=O)Nc2ccc(-c3ccc(N4CCCC4)nn3)cc2)cc1[N+](=O)[O-],CC50,[16],> 50 µM (active)
same,IC50,[17],0.867 µM (active)
same,IC50,[18],0.524 µM (active)
Cc1cccn2c(=O)c(/C=C(\C#N)C(N)=O)c(N3CCN(c4cccc(Cl)c4)CC3)nc12,IC50,[19],> 100 µM (active)
CC(=O)NNC(=O)N1Cc2ccccc2Oc2ccc(Cl)cc21,AC50,[20],5.01 µM (inconclusive)
same,AC50,[15],12.6 µM (inconclusive)
same,AC50,[21],31.6 µM (inconclusive)
same,AC50,[22],20 µM (inconclusive)
O=C1N=C(Nc2ccccc2Cl)S/C1=C\c1cc([N+](=O)[O-])ccc1O,EC50,[13],10.9 µM (active)
same,EC50,[14],> 300 µM (not active)
CC1CC2C3CCC4=CC(=O)C=C[C@@]4(C)[C@]3(F)C(O)C[C@]2(C)[C@]1(O)C(=O)COP(=O)(O)O (stereo not given in full),AC50,[15],39.8 µM (inconclusive)
Cc1ccc(S(=O)(=O)NNc2nc3ccccc3nc2C(F)(F)F)cc1,EC50,[13],39.8 µM (active)
same,EC50,[14],21.5 µM (inconclusive)
O=C(CN1CC(=O)Oc2ccccc21)OCC(=O)c1ccccc1,IC50,[19],1.47 µM (active)
CCCCNC(=O)C(c1ccc(OCC(=O)OC)c(C(=O)OC)c1)N(CCC1=CCCCC1)C(=O)CCCCCN1C(=O)NC(c2ccc(-c3ccccc3)cc2)C(C(=O)OCc2ccccc2)=C1C (stereo not given),AC50,[15],2.51 µM (inconclusive)
CCOc1ccc(OCc2cccc(C(=O)N3CCCCCC3)c2)cc1,AC50,[1],4.36 µM (active)
O=C(COc1ccc(Br)cc1)N1CCN(Cc2c[nH]c3ccccc23)CC1,AC50,[5],3.34 µM (active)
Cc1ccc2oc(=O)c3c4cc(O)c(O)c(C)c4oc3c2c1,AC50,[15],12.6 µM (inconclusive)
COc1ccc(C(=O)NNC(=O)c2cnccn2)cc1[N+](=O)[O-],EC50,[13],25.3 µM (active)
same,EC50,[14],1.72 µM (active)
same,EC50,[23],> 195 µM (not active)
CN(C)c1ccc(C=C2C=CC=C2)cc1,IC50,[19],31.5 µM (active)
CCOC(=O)COn1c(=O)c(-c2cc3ccccc3o2)[n+]([O-])c2ccccc21,EC50,[13],> 300 µM (not active)
same,EC50,[14],27.6 µM (active)
CCOC(=O)C1Nc2c(F)cc(C)cc2C2C=CCC12 (stereo not given),EC50,[13],> 300 µM (not active)
same,EC50,[14],> 300 µM (not active)
N#Cc1ccc(C23CC4(C2)[C@H](CN(Cc2ccc(-c5ccccc5)cc2)[C@@H]4c2ccccc2)C3c2ccccc2)cc1 (stereo not given in full),AC50,[15],15.8 µM (inconclusive)
COc1cccc(/C=N/Nc2ncnc(N)c2[N+](=O)[O-])c1OC,EC50,[13],18.4 µM (active)
same,EC50,[14],> 300 µM (inconclusive)
same,AC50,[1],3.91 µM (active)
COc1cccc(C=NNC(=O)C[n+]2ccccc2)c1O,IC50,[19],10.4 µM (active)
O=C(N/N=C/c1c(O)ccc2ccccc12)c1ccc(CO)nc1,EC50,[24],10.8 µM (active)
same,EC50,[25],> 350 µM (not active)
same,IC50,[19],10.6 µM (active)
COc1cccc(/C=N/NC(=O)CN2CC(c3ccccc3)CC2=O)c1O (stereo not given),AC50,[5],6.51 µM (active)
